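Growth conditions: 96-well plates. Treatment: test compound, 48 hours, 5 concentrations. Analysis: linear interpolation between bracketing concentrations; unreached endpoints set to highest concentration. GI50 = concentration required for 50% inhibition of growth.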 Activity calls are given as the source filed them. Rule as the data show it: active = GI50 up to about 1.1 µM and inactive = higher.
Columns and labels:
Assay in all cases: growth of human tumour cells (NCI), 48 h
[1] = test system: COLO 205
[2] = test system: NCI-H460
[3] = test system: SK-MEL-28
[4] = test system: U-251
[5] = test system: SK-OV-3
[6] = test system: UO-31
[7] = test system: HOP-92
[8] = test system: K562
[9] = test system: SF-539
[10] = test system: UACC-62
[11] = test system: TK-10
[12] = test system: CCRF-CEM
[13] = test system: RXF 393
[14] = test system: LOX IMVI
[15] = test system: RPMI-8226
[16] = test system: MOLT-4
[17] = test system: NCI-H522
[18] = test system: MDA-N
[19] = test system: Hs-578T

SMILES | GI50 [1] | GI50 [2] | GI50 [3] | GI50 [4] | GI50 [5] | GI50 [6] | GI50 [7] | GI50 [8] | GI50 [9] | GI50 [10] | GI50 [11] | GI50 [12] | GI50 [13] | GI50 [14] | GI50 [15] | GI50 [16] | GI50 [17] | GI50 [18] | GI50 [19]
COc1ccc(OC2(c3cc(OC)ccc3OC)OC(=O)c3ccccc32)cc1 (stereo not drawn) | > 100 µM (inactive) | > 100 µM (inactive) | > 100 µM (inactive) | > 100 µM (inactive) | > 100 µM (inactive) | > 100 µM (inactive) | > 100 µM (inactive) | > 100 µM (inactive) | > 100 µM (inactive) | > 100 µM (inactive) | > 100 µM (inactive) | > 100 µM (inactive) | > 100 µM (inactive) | > 100 µM (inactive) | > 100 µM (inactive) | > 100 µM (inactive) | > 100 µM (inactive) |  | 
Cc1noc2cccc(OCc3ccccc3)c12 | 52.1 µM (inactive) | > 100 µM (inactive) | > 100 µM (inactive) | 93.8 µM (inactive) | > 100 µM (inactive) | 15 µM (inactive) | 43.3 µM (inactive) | 43 µM (inactive) | > 100 µM (inactive) | > 100 µM (inactive) | 47 µM (inactive) | 13.5 µM (inactive) | 30.8 µM (inactive) | 51.3 µM (inactive) | 30.7 µM (inactive) | 39.5 µM (inactive) | 13.2 µM (inactive) |  | 
CC1=C2C(=CC(C)(C)[C@@H]2O)C(=O)[C@](C)(O)C12CC2 [ILLUDIN M] | 0.0243 µM (active) | 0.01 µM (active) | < 0.0209 µM (active) | 0.01 µM (active) | 0.0197 µM (active) | 0.0246 µM (active) | 0.0193 µM (active) | 0.0181 µM (active) | 0.0184 µM (active) | 0.0208 µM (active) | < 0.0182 µM (active) | 0.0168 µM (active) | 0.00329 µM (active) | 0.0172 µM (active) | 0.839 µM (active) | 0.01 µM (active) | 0.0115 µM (active) | 0.0171 µM (active) | 
C=C(C)[C@@]1(O[Si](C)(C)C)CCCC[C@@H]1CC(Sc1ccccc1)Sc1ccccc1 | 19.9 µM (inactive) | 13.2 µM (inactive) | 18.3 µM (inactive) | 16 µM (inactive) | 20 µM (inactive) | 13.8 µM (inactive) | 12.7 µM (inactive) | 12.7 µM (inactive) | 10.2 µM (inactive) | 13.2 µM (inactive) | 15.4 µM (inactive) | 14.4 µM (inactive) | 10.8 µM (inactive) | 17.9 µM (inactive) | 16.9 µM (inactive) | 4.89 µM (inactive) | 7.83 µM (inactive) | 15.4 µM (inactive) | 13.4 µM (inactive)
C=CC1(c2ccc(-c3ccccc3)cc2)OCCO1 | 31.3 µM (inactive) | > 100 µM (inactive) | > 100 µM (inactive) | 54.8 µM (inactive) | > 100 µM (inactive) | > 100 µM (inactive) | 34.8 µM (inactive) | 22.9 µM (inactive) | > 100 µM (inactive) | 26.1 µM (inactive) | 89.1 µM (inactive) | 11.9 µM (inactive) | 39.4 µM (inactive) | 58.9 µM (inactive) | > 100 µM (inactive) | 40.6 µM (inactive) | 42 µM (inactive) | 50.9 µM (inactive) | 23.4 µM (inactive)
CC(=O)OCC1OC(n2c3c(c(-c4ccco4)c(C#N)c2=S)CCCC3)C(OC(C)=O)C(OC(C)=O)C1OC(C)=O (stereo not drawn) | > 31.6 µM (inactive) | 22.9 µM (inactive) | > 31.6 µM (inactive) | > 10 µM (inactive) | > 10 µM (inactive) | 22.6 µM (inactive) | 7.36 µM (inactive) | > 10 µM (inactive) | 17.6 µM (inactive) | > 10 µM (inactive) | 15.7 µM (inactive) | > 10 µM (inactive) | > 10 µM (inactive) | > 31.6 µM (inactive) | > 100 µM (inactive) | > 31.6 µM (inactive) | 16.3 µM (inactive) | > 31.6 µM (inactive) | 29.4 µM (inactive)
CN(C)CCC(/C=C/c1ccccc1)=N\Nc1ccc(Cl)cc1 | 4.31 µM (inactive) | 2.1 µM (inactive) | 12.8 µM (inactive) | 1.84 µM (inactive) | 3.99 µM (inactive) | 1.71 µM (inactive) | 2.18 µM (inactive) | 2.21 µM (inactive) | 2.25 µM (inactive) | 2.03 µM (inactive) | 2.89 µM (inactive) | 2.96 µM (inactive) | 6.05 µM (inactive) | 1.59 µM (inactive) | 1.9 µM (inactive) | 2.23 µM (inactive) | 3.24 µM (inactive) |  | 
O=[N+]([O-])c1ccc2nc(/C(=N/Nc3ccccc3)C(O)c3ccc(Cl)cc3Cl)c(O)nc2c1 (stereo not drawn) | 38.9 µM (inactive) | > 100 µM (inactive) |  | > 100 µM (inactive) | > 100 µM (inactive) | 78.9 µM (inactive) | > 100 µM (inactive) | 30 µM (inactive) | > 100 µM (inactive) | 48.5 µM (inactive) | > 100 µM (inactive) | 22.3 µM (inactive) | > 100 µM (inactive) | > 100 µM (inactive) | 52.4 µM (inactive) | 84.5 µM (inactive) | 15.9 µM (inactive) |  | 
COC(=O)C1C=CCON2CCc3c(n(C)c4ccccc34)C12 (stereo not drawn) | > 100 µM (inactive) | > 100 µM (inactive) | > 100 µM (inactive) | > 100 µM (inactive) | > 100 µM (inactive) | > 100 µM (inactive) | > 100 µM (inactive) | > 100 µM (inactive) | > 100 µM (inactive) |  | > 100 µM (inactive) | > 100 µM (inactive) | > 100 µM (inactive) | > 100 µM (inactive) | > 100 µM (inactive) | > 100 µM (inactive) | > 100 µM (inactive) |  | 
O=C1C(c2ccc([N+](=O)[O-])cc2)=[N+]([O-])c2ccccc21 | 11.1 µM (inactive) | 37 µM (inactive) | 29.3 µM (inactive) | 16.5 µM (inactive) | 77.6 µM (inactive) | 29.4 µM (inactive) | 31 µM (inactive) | 26.5 µM (inactive) | 37.9 µM (inactive) | 19.2 µM (inactive) | 37.1 µM (inactive) | 22.9 µM (inactive) | 23.3 µM (inactive) | 21.1 µM (inactive) | 19 µM (inactive) | 31.5 µM (inactive) | 8.57 µM (inactive) |  | 
CC/C(=C\c1ccc(Cl)c(Cl)c1)[N+](=O)[O-] | 1.72 µM (inactive) | 2.42 µM (inactive) | 2.06 µM (inactive) | 1.86 µM (inactive) |  | 1.88 µM (inactive) |  | 2.13 µM (inactive) | 1.89 µM (inactive) | 1.93 µM (inactive) | 1.94 µM (inactive) |  |  | 0.405 µM (active) | 1.92 µM (inactive) | 0.236 µM (active) | 1.72 µM (inactive) |  | 3.48 µM (inactive)
CN1CCCCC(C#N)(c2ccccc2)CC1 (stereo not drawn) | > 100 µM (inactive) | > 100 µM (inactive) | > 100 µM (inactive) | > 100 µM (inactive) | > 100 µM (inactive) | > 100 µM (inactive) | > 100 µM (inactive) | > 100 µM (inactive) |  |  | > 100 µM (inactive) | > 100 µM (inactive) | > 100 µM (inactive) |  | > 100 µM (inactive) | > 100 µM (inactive) |  | > 100 µM (inactive) | > 100 µM (inactive)
CCOC(OC1=C(C#N)CCCC1)C(C)[Se]c1ccccc1 (stereo not drawn) | 39.7 µM (inactive) | 54.1 µM (inactive) | 26 µM (inactive) | 13.4 µM (inactive) | > 100 µM (inactive) | 43.6 µM (inactive) | 31.6 µM (inactive) | 62.1 µM (inactive) | 18.1 µM (inactive) | 19.2 µM (inactive) | > 100 µM (inactive) | 21.7 µM (inactive) | 15.2 µM (inactive) | 16 µM (inactive) | 28.3 µM (inactive) | 29 µM (inactive) | 16 µM (inactive) |  | 
CC1C2Cc3ccc(O)cc3C1(C)CCN2C (stereo not drawn) | > 100 µM (inactive) | > 100 µM (inactive) | > 100 µM (inactive) | > 100 µM (inactive) | > 100 µM (inactive) | > 100 µM (inactive) |  | > 100 µM (inactive) | > 100 µM (inactive) | > 100 µM (inactive) | > 100 µM (inactive) | > 100 µM (inactive) | > 100 µM (inactive) | > 100 µM (inactive) | > 100 µM (inactive) | > 100 µM (inactive) | > 100 µM (inactive) | > 100 µM (inactive) | > 100 µM (inactive)
COc1ccc(-c2cc(=O)c3c(O)c(O)c(OC)cc3o2)cc1O | > 100 µM (inactive) | 57.9 µM (inactive) | > 100 µM (inactive) | > 100 µM (inactive) | > 100 µM (inactive) | > 100 µM (inactive) | > 100 µM (inactive) | > 100 µM (inactive) | > 100 µM (inactive) | > 100 µM (inactive) | > 100 µM (inactive) | > 100 µM (inactive) | > 100 µM (inactive) | > 100 µM (inactive) | > 100 µM (inactive) | > 100 µM (inactive) | 53.5 µM (inactive) |  | 
COc1cc2c(c(OC)c1OC)C(=O)NCCC2 | > 100 µM (inactive) | > 100 µM (inactive) | > 100 µM (inactive) | > 100 µM (inactive) | > 100 µM (inactive) | > 100 µM (inactive) | > 100 µM (inactive) | > 100 µM (inactive) | > 100 µM (inactive) | > 100 µM (inactive) | > 100 µM (inactive) | > 100 µM (inactive) | > 100 µM (inactive) | > 100 µM (inactive) | > 100 µM (inactive) | > 100 µM (inactive) | > 100 µM (inactive) |  | 

Reference: ChEMBL document CHEMBL1201862, “PubChem BioAssay data set” (2004)
